{"source": "patent US11752125B2", "about": "“Anti-neuroinflammatory and protective compounds in Achillea fragrantissima” (THE STATE OF ISRAEL MINISTRY OF AGRICULTURE & RURAL …, priority 2013, dated 2023)", "key": {"astrocytes": {"test_system": "astrocytes", "experiment": "Cytotoxicity of the compound by itself to astrocytes (LDH)", "assay_type": "cell-based", "conditions": "all concentrations tested, 20 h", "method": "Astrocytes were re-plated at 24-well poly-D-lysine-coated plastic plates at a density of 1×10^5/well, in DMEM w/o Phenol Red containing 2% FBS, 2 mM glutamine, 100 U/mL penicillin, and 100 μg/mL streptomycin. H2O2 in the presence or absence of TTF were added, and cell viability was determined using a commercial colorimetric assay (Roche Applied Science, Germany) according to the manufacturer's instructions. This assay is based on the measurement of lactate dehydrogenase (LDH) activity released from the cytosol of damaged cells into the incubation medium. The absorbance was measured at 492 nm in a plate reader. The percentage of cytotoxicity was calculated according to the following equation, where the “ATriton-x treated cells” is the maximum releasable LDH in the cells:\nAstrocytes were treated with different concentrations of TTF and cell death was determined 20 h later by the LDH method. The results are means±SEM of two experiments (n=10) and are shown in FIG. 2C. ***P<0.001, compared to untreated cells."}, "primary astrocytes": {"test_system": "primary astrocytes", "conditions": "Nones et al., 2012; cited from earlier work"}, "glutamate": {"test_system": "glutamate", "experiment": "Glutamate secretion from LPS-activated microglial cells", "assay_type": "cell-based, rat", "conditions": "LPS 100 ng/mL, 20 h", "method": "For glutamate measurements, 3.5×10^4 cells/well were plated on a 24-well tissue culture plate. After 24 h of incubation in DMEM containing 10% FBS, cells were stimulated with LPS (100 ng/mL) and treated with different concentrations of achillolide A. Conditioned media were collected twenty hours later, and were tested for glutamate levels using a colorimetric enzymatic assay kit (glutamate assay kit, BioVision, CA, USA) according to the manufacturer's instructions. 7. Measure the levels of glutamate using a colorimetric enzymatic assay kit (glutamate assay kit, BioVision, CA, USA) according to the manufacturer's instructions. Microglial cells were treated with the indicated concentrations of achillolide A, followed by stimulation with LPS (100 ng/mL). After 20 h, conditioned media were collected and tested for glutamate levels by a commercial kit. Values represent the means±SEM (n=4 for each treatment). ** p<0.01; *** p<0.001, compared to LPS-stimulated cells."}, "TNFα": {"test_system": "TNFα", "experiment": "TNFα transcripts in LPS-stimulated microglial cells (real-time PCR)", "assay_type": "cell-based, rat", "conditions": "20 μg/mL; LPS 4.5 ng/mL, 5 h", "method": "RNA was extracted by the RNeasy Plus Mini Kit (Qiagen, Hilden, Germany) according to the manufacturer's instructions. Genomic DNA was removed from the RNA samples by using 50 units of RNase-free DNaseI at 37° C. for 1 h. RNA ([…]) was converted to cDNA using the Thermo Scientific Verso cDNA kit (Thermo Fisher Scientific Inc) following the manufacturer's protocol. The cDNA was used for quantitative real-time PCR amplification with TaqMan chemistry (Applied Biosystems) using Rat MMP9, TNFα, IL1β, iNOS, COX2 pre-designed TaqMan Gene Expression Assay from Applied Biosystems (Rn00579162_m1, Rn00562055_m1, Rn00580432_m1, Rn00561646_m1, Rn01483828_m1, respectively). […] All results from three technical replicates were normalized relative to α-Tubulin (Rn01532518.g1) and GAPDH (Rn01775763.g1), respectively, and expressed as relative expression ratios calculated (relative quantity, RQ) using the comparative method and based on the data that were created by the ABI PRISM 7700 Sequence Detection System (using version 1.6 software).\nProcedure 23. Measurement of IL-1Beta, TNFalpha, iNOS, COX-2 and MMP-9 Transcripts in LPS-Activated Microglial Cells by Quantitative Real-Time PCR Analysis. • 1. […]\nMicroglial cells were treated with 20 μg/mL of achillolide A, followed by stimulation with LPS (4.5 ng/mL). […] The results are expressed as percentages relative to LPS-stimulated cells. […]"}}}
{"smiles": "COc1cc(-c2oc3cc(OC)c(OC)c(O)c3c(=O)c2O)ccc1O", "note": "[TTF, 3,5,4′-trihydroxy-6,7,3′-trimethoxyflavone]", "values": [{"measurement": "cytotoxicity of the flavonoid by itself to astrocytes", "setting": "astrocytes", "result": "< 11", "unit": "%"}]}
{"smiles": "O=c1c(O)c(-c2ccc(O)c(O)c2)oc2cc(O)cc(O)c12", "note": "[quercetin, 3,3′,4′,5,7-Pentahydroxyflavone, reference compound]", "values": [{"measurement": "nontoxic concentration in primary astrocytes", "setting": "primary astrocytes", "result": "up to 100 μM"}]}
{"smiles": "C=C1CCC2=C(CO)C(=O)O[C@H]2/C=C(\\C)[C@H](OC(C)=O)CC1=O", "note": "[achillolide A]", "values": [{"measurement": "inhibition of the LPS-induced levels of secreted glutamate", "setting": "glutamate", "result": 80, "unit": "%"}, {"measurement": "effect on LPS-induced TNFα transcript levels", "setting": "TNFα", "result": "significantly inhibited"}]}
